pEC50: −log10 of the molar value. Read-outs that look alike come from different tables or passages of the source.
How the values were obtained:
[1] = target: T1, human cannabinoid receptor type 2 (Homo sapiens, UniProt P34972); assay: Human CB2 Radioligand Binding Assay; conditions: membranes from stably transfected CHO CB2 cells
T1 construct: expressed in transfected cells; membrane preparation
Method in brief: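 Test compounds (10 uM final, or dose-response) competed with [3H]CP-55,940, used at the Kd determined per membrane lot, for binding to stable human CB2-CHO membranes over 90 min at 30° C in pH 7.4 Tris/EGTA/MgCl2/BSA buffer. GF/C filtration then scintillation counting; 100 nM CP-55,940 defined 100% efficacy.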

[2] = target: T2, human cannabinoid receptor type 1 (Homo sapiens, UniProt P21554); assay: Human CB1 Radioligand Binding Assay (basis of selectivity, CB2 vs. CB1); conditions: CB1: HEK 293 EBNA cells expressing human CB1; CB2: CHO CB2 membranes
T2 construct: purchased Perkin Elmer RBHCB1M; host or cells: HEK 293 EBNA cells
T2 sequence (P21554 whole entry): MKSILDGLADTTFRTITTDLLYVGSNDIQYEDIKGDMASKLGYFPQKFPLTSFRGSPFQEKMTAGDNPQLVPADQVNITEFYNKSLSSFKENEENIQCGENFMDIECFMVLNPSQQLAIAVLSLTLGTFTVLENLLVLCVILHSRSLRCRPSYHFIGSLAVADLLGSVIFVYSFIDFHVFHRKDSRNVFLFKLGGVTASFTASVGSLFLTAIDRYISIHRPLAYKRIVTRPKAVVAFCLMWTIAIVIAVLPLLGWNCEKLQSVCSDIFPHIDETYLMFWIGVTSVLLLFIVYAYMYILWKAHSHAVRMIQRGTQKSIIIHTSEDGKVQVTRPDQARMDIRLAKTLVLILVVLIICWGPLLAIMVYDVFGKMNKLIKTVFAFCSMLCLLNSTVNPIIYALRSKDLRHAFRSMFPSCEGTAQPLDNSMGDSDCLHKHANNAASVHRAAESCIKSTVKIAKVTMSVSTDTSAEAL
Protocol: 2. Human CB1 Radioligand Binding Assay
The incubation buffer was composed of 50 mM Tris-HCl pH 7.4, 2.5 mM EDTA, 5 mM MgCl2, 5.0 mg/ml fatty acid free BSA and the wash buffer was composed of 50 mM Tris-HCl pH 7.4, 2.5 mM EDTA, 5 mM MgCl2, 0.5 mg/ml fatty acid free BSA.

[3] = competition with [3H] CP-55,940, read-out: CB2 Ligand Binding Asssay EC50

T1 sequence (P34972 whole entry): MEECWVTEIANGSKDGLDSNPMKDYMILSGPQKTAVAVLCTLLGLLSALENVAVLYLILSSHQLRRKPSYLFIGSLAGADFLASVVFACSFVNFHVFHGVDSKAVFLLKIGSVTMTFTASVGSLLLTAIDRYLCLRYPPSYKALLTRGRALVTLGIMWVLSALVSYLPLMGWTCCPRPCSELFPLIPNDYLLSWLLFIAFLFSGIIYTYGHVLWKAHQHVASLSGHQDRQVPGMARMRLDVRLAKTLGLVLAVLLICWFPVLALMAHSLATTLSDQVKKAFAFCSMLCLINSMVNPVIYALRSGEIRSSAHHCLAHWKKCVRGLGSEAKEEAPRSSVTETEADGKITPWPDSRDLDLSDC

Row | pEC50 [1, 3] | Selectivity, CB2 vs. CB1 [2] | SMILES | pEC50 ([1]; CB2 Ligand Binding Asssay EC50, competition with [3H] CP-55,940)
1 | < 6.00 | − (− indicates ≦ 10−fold) | CCOC(=O)N1CCN(c2nc(-c3ccccc3Cl)nc3cc(C(=O)O)ccc23)CC1 [Example 318, 2-(2-Chlorophenyl)-4-(4-(ethoxycarbonyl)piperazin-1-yl)quinazoline-7-carboxylic acid] | 
2 | > 6.00 | − (− indicates ≦ 10−fold) | CC1CCN(c2nc(-c3ccccc3Cl)nc3ccc(C(=O)NC4CCCCC4)cc23)CC1 [Example 312, 2-(2-Chlorophenyl)-N-cyclohexyl-4-(4-methylpiperidin-1-yl)quinazoline-6-carboxamide] | 
3 | > 6.00 | − (− indicates ≦ 10−fold) | FC(F)(F)Oc1ccc(-c2nc(N3CCCC3)c3ccccc3n2)cc1 [Example 139, 4-Pyrrolidin-1-yl-2-(4-trifluoromethoxyphenyl)quinazoline] | 
4 | < 6.00 | − (− indicates ≦ 10−fold) | CN(C)C(=O)C1CCN(c2nc(-c3ccccc3Cl)nc3ccccc23)CC1 [Example 102, 1-(2-(2-Chlorophenyl)quinazolin-4-yl)-N,N-dimethylpiperidine-4-carboxamide] | 
5 | < 6.00 | − (− indicates ≦ 10−fold) | CC(C)c1nc(N2CCCCC2)c2ccccc2n1 [Example 146, 2-Isopropyl-4-piperidin-1-ylquinazoline] | 
6 | > 6.00 | + (+ indicates > 10−fold) | CC(=O)N1CCN(c2nc(C(C)c3ccccc3C)nc3ccccc23)CC1 (stereo not shown) [Example 344, 1-(4-(2-(1-o-Tolylethyl)quinazolin-4-yl)piperazin-1-yl)ethanone] | 
7 | > 6.00 | + (+ indicates > 10−fold) | CC(=O)N1CCN(c2nc(-c3ccc(F)c(F)c3)nc3ccccc23)CC1 [Example 19, 1-(4-(2-(3,4-Difluorophenyl)quinazolin-4-yl)piperazin-1-yl)ethanone] | 
8 | > 6.00 | − (− indicates ≦ 10−fold) | CN1CCN(c2nc(-c3ccc(F)cc3F)nc3ccccc23)CC1 [Example 27, 2-(2,4-Difluorophenyl)-4-(4-methylpiperazin-1-yl)quinazoline] | 
9 | > 6.00 | − (− indicates ≦ 10−fold) | CN1CCN(c2nc(C3CCCCC3)nc3ccc(Cl)cc23)CC1 [Example 161, 6-Chloro-2-cyclohexyl-4-(4-methylpiperazin-1-yl)quinazoline] | 
10 | > 6.00 | + (+ indicates > 10−fold) | Cc1cccc2nc(-c3ccccc3Cl)nc(N3CCCC3)c12 [Example 256, 2-(2-Chlorophenyl)-5-methyl-4-(pyrrolidin-1-yl)quinazoline] | 
11 | < 6.00 | − (− indicates ≦ 10−fold) | CN1CCN(c2nc(-c3ccccc3Cl)nc3ccccc23)C(=O)C1 [Example 74, 1-(2-(2-Chlorophenyl)quinazolin-4-yl)-4-methylpiperazin-2-one] | 

More lines, now with the values behind:

Row | SMILES | pEC50 [1, 3] | Selectivity, CB2 vs. CB1 [2] | pEC50 ([1]; CB2 Ligand Binding Asssay EC50, competition with [3H] CP-55,940)
12 | Clc1ccc(-c2nc(NCc3ccccc3)c3ccccc3n2)cc1 [Example 121, N-Benzyl-2-(4-chlorophenyl)quinazolin-4-amine] | < 6.00 | − (− indicates ≦ 10−fold) | 
13 | CCOC(=O)N1CCN(c2nc(-c3ccccc3Cl)nc3ccc(C(=O)N(CC)CC)cc23)CC1 [Example 314, Ethyl 4-(2-(2-chlorophenyl)-6-(diethylcarbamoyl)quinazolin-4-yl)piperazine-1-carboxylate] | < 6.00 | + (+ indicates > 10−fold) | 
14 | COc1ccc2nc(C3CCCCC3)nc(N3CCN(C(C)=O)CC3)c2c1 [Example 186, 1-(4-(2-Cyclohexyl-6-methoxyquinazolin-4-yl)piperazin-1-yl)ethanone] | > 6.00 | − (− indicates ≦ 10−fold) | 
15 | CCOC(=O)N1CCN(c2nc(-c3ccccc3Cl)nc3ccc(Cl)cc23)CC1 [Example 206, Ethyl 4-(6-chloro-2-(2-chlorophenyl)quinazolin-4-yl)piperazine-1-carboxylate] | < 6.00 | − (− indicates ≦ 10−fold) | 
16 | CC(C)(C)c1ccc(-c2nc(Nc3ccc(F)cc3F)c3ccccc3n2)cc1 [Example 115, 2-(4-tert-Butylphenyl)-N-(2,4-difluorophenyl)quinazolin-4-amine] | < 6.00 | − (− indicates ≦ 10−fold) | 
17 | COc1ccc(CNC(=O)c2ccc3nc(-c4ccccc4Cl)nc(N4CCC(C)CC4)c3c2)cc1 [Example 313, 2-(2-Chlorophenyl)-N-(4-methoxybenzyl)-4-(4-methylpiperidin-1-yl)quinazoline-6-carboxamide] | > 6.00 | − (− indicates ≦ 10−fold) | 
18 | CCOC(=O)N1CCN(c2nc(-c3ccccc3Cl)nc3ccc(OC)cc23)CC1 [Example 217, Ethyl 4-(2-(2-chlorophenyl)-6-methoxyquinazolin-4-yl)piperazine-1-carboxylate] | > 6.00 | + (+ indicates > 10−fold) | 
19 | Fc1ccc(-c2nc(N3CCCC3)c3ccccc3n2)c(F)c1 [Example 22, 2-(2,4-Difluorophenyl)-4-(pyrrolidin-1-yl)quinazoline] | > 6.00 | − (− indicates ≦ 10−fold) | 
20 | O=S(=O)(NCc1nc(N2CCCC2)c2ccccc2n1)c1ccc(F)cc1F [Example 4, 2,4-Difluoro-N-((4-(pyrrolidin-1-yl)quinazolin-2-yl)methyl)benzenesulfonamide] | > 6.00 | − (− indicates ≦ 10−fold) | 
21 | c1ccc(-c2nc(N3CCCC3)c3ccccc3n2)cc1 [Example 48, 2-Phenyl-4-(pyrrolidin-1-yl)quinazoline] | < 6.00 | − (− indicates ≦ 10−fold) | 
22 | CCCC(=O)N1CCN(c2nc(-c3ccccc3Cl)nc3ccccc23)CC1 [Example 95, 1-(4-(2-(2-Chlorophenyl)quinazolin-4-yl)piperazin-1-yl)butan-1-one] | > 6.00 | + (+ indicates > 10−fold) | 
23 | COC(=O)c1ccc2nc(-c3ccccc3Cl)nc(N3CCN(C)CC3)c2c1 [Example 310, Methyl 2-(2-chlorophenyl)-4-(4-methylpiperazin-1-yl)quinazoline-6-carboxylate] | > 6.00 | − (− indicates ≦ 10−fold) | 
24 | CN1CCN(c2nc(C3CCCCC3)nc3cc(Cl)ccc23)CC1 [Example 166, 7-Chloro-2-cyclohexyl-4-(4-methylpiperazin-1-yl)quinazoline] | > 6.00 | + (+ indicates > 10−fold) | 
25 | CN1CCN(c2nc(-c3ccc(Cl)cc3)nc3ccc(Cl)cc23)CC1 [Example 212, 6-Chloro-2-(4-chlorophenyl)-4-(4-methylpiperazin-1-yl)quinazoline] | < 6.00 | − (− indicates ≦ 10−fold) | 
26 | c1ccc(Cc2nc(N3CCCCC3)c3ccccc3n2)cc1 [Example 339, 2-Benzyl-4-(piperidin-1-yl)quinazoline] | < 6.00 | − (− indicates ≦ 10−fold) | 
27 | Clc1ccccc1-c1nc(N2CCCC2)c2cccc(Cl)c2n1 [Example 227, 8-Chloro-2-(2-chlorophenyl)-4-(pyrrolidin-1-yl)quinazoline] | > 6.00 | − (− indicates ≦ 10−fold) | 
28 | c1ccc2c(N3CCOCC3)nc(C3CCCC3)nc2c1 [Example 137, 2-Cyclopentyl-4-morpholin-4-ylquinazoline] | < 6.00 | − (− indicates ≦ 10−fold) | 
29 | CNC(=O)N1CCN(c2nc(-c3ccccc3Cl)nc3ccccc23)CC1 [Example 88, 4-(2-(2-Chlorophenyl)quinazolin-4-yl)-N-methylpiperazine-1-carboxamide] | < 6.00 | − (− indicates ≦ 10−fold) | 
30 | Clc1ccc(-c2nc(N3CCc4ccccc4C3)c3ccccc3n2)cc1 [Example 123, 2-(4-Chlorophenyl)-4-(3,4-dihydro-1H-isoquinolin-2-yl)quinazoline] | < 6.00 | − (− indicates ≦ 10−fold) | 
31 | CCc1ccc2nc(-c3ccccc3Cl)nc(N3CCSCC3)c2c1 [Example 174, 4-(2-(2-Chlorophenyl)-6-ethylquinazolin-4-yl)thiomorpholine] | > 6.00 | + (+ indicates > 10−fold) | 
32 | Clc1ccc2c(N3CCCC3)nc(-c3ccccc3Cl)nc2c1 [Example 235, 7-Chloro-2-(2-chlorophenyl)-4-(pyrrolidin-1-yl)quinazoline] |  | − (− indicates ≦ 10−fold) | < 6.00
33 | COC(=O)N1CCN(c2nc(-c3ccccc3Cl)nc3cccc(Cl)c23)CC1 [Example 261, Methyl 4-(5-chloro-2-(2-chlorophenyl)quinazolin-4-yl)piperazine-1-carboxylate] | > 6.00 | + (+ indicates > 10−fold) | 
34 | CCOC(=O)N1CCN(c2nc(-c3ccccc3Cl)nc3ccccc23)CC1 [Example 62, Ethyl 4-(2-(2-Chlorophenyl)quinazolin-4-yl)piperazine-1-carboxylate] | > 6.00 | + (+ indicates > 10−fold) | 
35 | COc1ccc2nc(-c3ccccc3Cl)nc(N3CCN(C)CC3)c2c1 [Example 177, 2-(2-Chlorophenyl)-6-methoxy-4-(4-methylpiperazin-1-yl)quinazoline] | > 6.00 | − (− indicates ≦ 10−fold) | 

From patent US20090209536A1, “AMINOQUINAZOLINE CANNABINOID RECEPTOR MODULATORS FOR TREATMENT OF DISEASE” (KALYPSYS, INC., priority 2007, published 2009)
